Experiments:
[1] = tested on: Klebsiella pneumoniae KP1004 (KPC-2); assay: Checkerboard assay, biapenem potentiation (MPC8); type: cell-based; details: concentration to reduce biapenem MIC 8-fold
Procedure: (§1) The potency and spectrum of β-lactamase inhibitors was determined by assessing their antibiotic potentiation activity.
(§2) The potentiation effect is observed by the reduction of the minimum inhibitory concentration of β-lactam antibiotics in the presence of β-lactamase inhibitors (BLIs). […] Methods for Dilution of Antimicrobial Susceptibility Tests for Bacteria That Grow Aerobically—Eighth Edition; Approved Standard. CLSI Document M07-A8, 2009). In this assay, multiple dilutions of two drugs, namely BLI and β-lactam (biapenem), are being tested, alone and in combination, at concentrations equal to, above and below their respective minimal inhibitory concentrations (MICs). BLIs are solubilized in 10% DMSO at 10 mg/mL. Stock solutions are further diluted, according to the needs of a particular assay, in Mueller Hinton Broth (MHB). Stock solution can be stored at −80° C.
(§3) The checkerboard (CB) assay is performed in microtiter plates. Biapenem is diluted in the x axis, each column containing a single concentration of antibiotic. BLIs are diluted in the y axis, each row containing an equal concentration of BLI. The result of these manipulations is that each well of the microtiter plate contains a unique combination of concentrations of the two agents. The assay is performed in MHB with a final bacterial inoculum of 5×10^5 CFU/mL (from an early-log phase culture). Microtiter plates are incubated during 20 h at 35° C. and are read using a microtiter plate reader (Molecular Devices) at 650 nm as well as visual observation using a microtiter plate reading mirror.
(§4) Biapenem is a carbapenem β-lactam; only selected β-lactamases confer resistance to this class of antibiotics. Among them are serine carbapemenases that belong to class A and class D. Biapenem potentiation is studied in strains expressing various carbapenemases from these classes using CB assays. […] Cyclic boronic acid derivatives were capable of reducing biapenem MICs up to 1000-fold (Table 3).

[2] = tested on: Acinetobacter baumannii AB1054 (OXA-23); assay: Checkerboard assay, biapenem potentiation (MPC8); type: cell-based; details: concentration to reduce biapenem MIC 8-fold
Procedure: as §1, §2, §3, §4

KP1004 KPC-2 = assay: Dose titration biapenem potentiation assay (MPC1); type: cell-based, Klebsiella pneumoniae; details: biapenem 1 μg/mL
KP1008 KPC-2 = assay: Dose titration biapenem potentiation assay (MPC1); type: cell-based, Klebsiella pneumoniae; details: biapenem 1 μg/mL
[3] = tested on: Escherichia coli (EC1061) NDM-1; assay: Biapenem MIC at various concentrations of Compound 5; type: cell-based; details: EC1061 NDM-1
[4] = molecular target: T1, KPC-2 (Klebsiella pneumoniae KP1008 lysate) (Klebsiella pneumoniae, UniProt Q9F663); assay: Inhibition of biapenem hydrolysis by bacterial lysate; type: biochemical
T1 construct: Lysates were prepared from bacteria expressing various β-lactamases as a source of enzymes; endogenous in cells; host or cells: Klebsiella pneumoniae strains KP1004 and KP1008 (freeze-thaw lysate supernatants)
T1 sequence (Q9F663 25-293 limits assumed): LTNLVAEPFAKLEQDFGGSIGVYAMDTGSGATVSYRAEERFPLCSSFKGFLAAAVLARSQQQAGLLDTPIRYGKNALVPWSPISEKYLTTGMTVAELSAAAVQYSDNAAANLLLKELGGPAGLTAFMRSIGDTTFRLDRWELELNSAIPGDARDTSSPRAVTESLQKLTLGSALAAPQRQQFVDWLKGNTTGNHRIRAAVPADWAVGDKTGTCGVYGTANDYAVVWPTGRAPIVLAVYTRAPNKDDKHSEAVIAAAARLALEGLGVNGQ
Procedure: (§5) The activity of β-lactamase inhibitors to inhibit hydrolysis of biapenem was studied. Lysates were prepared from bacteria expressing various β-lactamases as a source of enzymes. Bacterial lysates were prepared as follows. A single colony from the fresh overnight plate was transferred to 5 mL of LB broth and grown to OD600=0.6-0.8. Next, this culture was transferred to 500 mL of LB and grown to OD600=0.7-0.9. Cells were pelleted by centrifugation at 5000 RPM (JA-14 rotor) for 15 minutes at room temperature. The pellet was resuspended in 10 mL of PBS. Five freeze-thaw cycles by putting cells at −20° C. and thawing them at the room temperature were next applied. After the last thaw step cells were spun down at 18K for 30 minutes and the supernatant was collected. This lysate was stored at −20° C.
(§6) Next, the activity of bacterial lysates was optimized for biapenem cleavage as follows. 50 μl of buffer A (50 mM Sodium Phosphate pH=7; 0.5% glucose, 1 mM MgCl2) was added to each well of 96-well UV-transparent plate. 50 μl of lysate was titrated vertically in 96-well plate column to generate 2-fold lysate dilutions. 100 μl of buffer A was added to each well, placed in plate reader at 37° C. and incubated for 15 minutes. 50 μl of 50 μg/mL solutions of biapenem in buffer A (pre-incubated at 37° C. for 15 minutes) were added to each well. Hydrolysis of biapenem was measured at 296 nm. This experiment was used to determine the optimal lysate dilution which produced a linear curve of relative UV signal that decreased to approximately OD=0.3-0.5 over 1 hour.
(§7) Finally, the potency of cyclic boronic acid derivative to inhibit the cleavage of biapenem cleavage by bacterial lysates was determined. 100 μl of buffer A (50 mM Sodium Phosphate pH=7; 0.5% glucose, 1 mM MgCl2) was added to each well of 96-well UV-transparent plate. 50 μl of 6× cyclic boronic acid derivative solution in buffer A was titrated vertically in 96-well plate column to generate 3-fold dilutions. 50 μl of diluted lysate in buffer A (optimal dilution is determined in experiment above) was added, and the plate was incubated in the plate reader at 37° C. for 15 minutes. 50 μl of 50 μg/mL solution of biapenem in buffer A (pre-incubated at 37° C. for 15 minutes) were next added to each well and hydrolysis of biapenem was recorded at 296 nm. EC50 of inhibition was determined by plotting the rate of biapenem cleavage vs. cyclic boronic acid derivative concentration.

[5] = molecular target: T2, KPC-2 (Klebsiella pneumoniae KP1004 lysate) (Klebsiella pneumoniae, UniProt Q9F663); assay: as above; type: biochemical
T2 construct: Lysates were prepared from bacteria expressing various β-lactamases as a source of enzymes; endogenous in cells; host or cells: Klebsiella pneumoniae strains KP1004 and KP1008 (freeze-thaw lysate supernatants)
T2 sequence (Q9F663 25-293 limits assumed): as above
Procedure: as §5, §6, §7

[6] = molecular target: T3, KPC-3 (Escherichia coli EC1007 lysate) (Klebsiella pneumoniae, UniProt Q9F663, H272Y); assay: as above; type: biochemical; details: EC1007 KPC-3 lysate; read-out: IC50 (μg/mL) of inhibition of biapenem hydrolysis
T3 construct: Lysates were prepared from bacteria expressing various β-lactamases as a source of enzymes; endogenous in cells; host or cells: Escherichia coli strain EC1007 (freeze-thaw lysate supernatant)
T3 sequence (Q9F663 25-293 H272Y): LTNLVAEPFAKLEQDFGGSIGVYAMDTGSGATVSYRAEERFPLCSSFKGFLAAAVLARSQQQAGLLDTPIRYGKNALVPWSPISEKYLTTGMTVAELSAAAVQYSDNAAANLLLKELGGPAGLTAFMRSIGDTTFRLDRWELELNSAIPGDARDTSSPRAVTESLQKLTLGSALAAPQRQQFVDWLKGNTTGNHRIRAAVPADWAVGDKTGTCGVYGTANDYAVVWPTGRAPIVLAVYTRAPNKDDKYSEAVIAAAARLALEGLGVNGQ
Procedure: as §5, §6, §7

[7] = molecular target: T4, SME-2 (Serratia marcescens SM1000 lysate) (Serratia marcescens, UniProt P52682); assay: as above; type: biochemical; details: SM1000 SME-2 lysate; read-out: IC50 (μg/mL) of inhibition of biapenem hydrolysis
T4 construct: Lysates were prepared from bacteria expressing various β-lactamases as a source of enzymes
T4 sequence (P52682 28-294 limits assumed): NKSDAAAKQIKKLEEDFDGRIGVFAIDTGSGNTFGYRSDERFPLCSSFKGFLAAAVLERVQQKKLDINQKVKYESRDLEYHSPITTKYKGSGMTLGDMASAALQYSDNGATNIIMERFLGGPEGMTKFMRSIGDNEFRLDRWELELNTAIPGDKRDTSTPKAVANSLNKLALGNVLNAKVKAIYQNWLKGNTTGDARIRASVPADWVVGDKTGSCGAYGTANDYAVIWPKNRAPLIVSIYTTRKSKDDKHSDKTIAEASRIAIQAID
Procedure: as §5, §6, §7

With O=C(O)C[C@@H]1CC[C@H](NC(=O)Cc2cccs2)B(O)O1 [Compound 5, 2-((3R,6S)-2-hydroxy-3-(2-(thiophen-2-yl)acetamido)-1,2-oxaborinan-6-yl)acetic acid] the MPC8 [1] was “X (X = MPC8 of less than 0.16 μg/mL.)”, the MPC8 [2] was “Z (Z = MPC8 of greater than 1 μg/mL.)” and the “BPM MPC1 KP1004 KPC-2” value (KP1004 KPC-2) was “X (X = MPC1 of less than 1 μg/mL.)”. For the same compound, the “BPM MPC1 KP1008 KPC-2” value (KP1008 KPC-2) was “X (X = MPC1 of less than 1 μg/mL.)”, the “Biapenem MIC” value ([3]; Compound 5 0.31 μg/ml) was 0.13 µg/mL and the “Biapenem MIC” value ([3]; Compound 5 0.63 μg/ml) was 0.13 µg/mL. The “Biapenem MIC” value ([3]; Compound 5 5 μg/ml) was 0.125 µg/mL, the “Biapenem MIC” value ([3]; Compound 5 10 μg/ml) was 0.06 µg/mL and the “Biapenem MIC” value ([3]; Compound 5 20 μg/ml) was 0.06 µg/mL. The IC50 [4] was 337 to 3370 nM, the IC50 [5] was less than 337 nM and the IC50 [6] was less than 337 nM. For the same compound, the IC50 [7] was less than 337 nM.
